What was measured:
Type in all cases: in vivo
[1] = test system: smallflower flatsedge (Cyperus difformis); assay: Test C flooded paddy test; conditions: for Flatsedge plant response rating: Flooded Paddy, scale 0 to 100, 0 no effect, 100 complete control; for Plant response rating, Flatsedge: flooded paddy test, scale 0 to 100 (0 no effect, 100 complete control)
Method in brief: (§1)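 Visually assessed vs untreated controls 12–14 d post-treatment (greenhouse). Flooded paddy plants were at the 2-leaf stage; scale 0 = no effect, 100 = complete control.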

rice (Oryza saliva) [2] = assay: Test C flooded paddy test; conditions: for Rice plant response rating: Flooded Paddy, scale 0 to 100, 0 no effect, 100 complete control; for Plant response rating, Rice: flooded paddy test, scale 0 to 100 (0 no effect, 100 complete control)
Method in brief: as §1

[3] = test system: barnyardgrass (Echinochloa crus-galli); assay: Test C flooded paddy test; conditions: for Barnyardgrass plant response rating: Flooded Paddy, scale 0 to 100, 0 no effect, 100 complete control; for Plant response rating, Barnyardgrass: flooded paddy test, scale 0 to 100 (0 no effect, 100 complete control)
Method in brief: as §1

[4] = test system: duck salad (Heteranthera limosa); assay: Test C flooded paddy test; conditions: for Ducksalad plant response rating: Flooded Paddy, scale 0 to 100, 0 no effect, 100 complete control; for Plant response rating, Ducksalad: flooded paddy test, scale 0 to 100 (0 no effect, 100 complete control)
Method in brief: as §1

[5] = test system: smallflower flatsedge (Cyperus difformis); assay: Test B flooded paddy test; conditions: Rate 1000 g/ha, scale of 0 to 100 where 0 is no effect and 100 is complete control, visually evaluated after 13 to 15 days
Method in brief: (§2)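 Rice, smallflower flatsedge, duck salad and barnyardgrass grown to 2-leaf stage in flooded paddy and treated with test chemicals. Plants kept in greenhouse 13 to 15 days, then visually rated against controls. Scale 0 (no effect) to 100 (complete control).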

rice (Oryza saliva) [6] = assay: Test B flooded paddy test; conditions: Rate 1000 g/ha, scale of 0 to 100 where 0 is no effect and 100 is complete control, visually evaluated after 13 to 15 days
Method in brief: as §2

[7] = test system: barnyardgrass (Echinochloa crus-galli); assay: Test B flooded paddy test; conditions: Rate 1000 g/ha, scale of 0 to 100 where 0 is no effect and 100 is complete control, visually evaluated after 13 to 15 days
Method in brief: as §2

[8] = test system: duck salad (Heteranthera limosa); assay: Test B flooded paddy test; conditions: Rate 1000 g/ha, scale of 0 to 100 where 0 is no effect and 100 is complete control, visually evaluated after 13 to 15 days
Method in brief: as §2

Sunflower = assay: Test C preemergence; conditions: Rate 31 g/ha, scale 0 to 100
[9] = test system: lambsquarters (Chenopodium album); assay: Test B postemergence; conditions: 13 to 15 days
Method in brief: (§3)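 Preemergence: seeds planted and treated with test chemicals in non-phytotoxic solvent with surfactant; postemergence on plants 2–18 cm (1- to 4-leaf stage). Kept in greenhouse 13–15 days, then visually rated against controls on a 0 (no effect) to 100 (complete control) scale.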

[10] = test system: blackgrass (Alopecurus myosuroides); assay: Test B postemergence; conditions: 13 to 15 days
Method in brief: as §3

[11] = test system: barnyardgrass (Echinochloa crus-galli); assay: Test A preemergence, soil drench; conditions: approx. eleven days
Method in brief: (§4)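 Visual injury rating on a 0–10 scale (10 = complete control) versus untreated controls after approximately eleven days in greenhouse. Compounds formulated in surfactant-containing non-phytotoxic solvent; preemergence by soil drench into sandy loam, postemergence by spray to runoff at one- to two-leaf stage.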

[12] = test system: crabgrass (Digitaria spp.); assay: Test A preemergence, soil drench; conditions: approx. eleven days
Method in brief: as §4

[13] = test system: giant foxtail (Setaria viridis); assay: Test A preemergence, soil drench; conditions: approx. eleven days
Method in brief: as §4

[14] = test system: velvetleaf (Abutilon theophrasti); assay: Test A preemergence, soil drench; conditions: approx. eleven days
Method in brief: as §4

[15] = test system: morning glory (Ipomoea spp.); assay: Test A preemergence, soil drench; conditions: Morningglory, approx. eleven days
Method in brief: as §4

[16] = test system: redroot pigweed (Amaranthus retroflexus); assay: Test A preemergence, soil drench; conditions: approx. eleven days
Method in brief: as §4

[17] = Rate 125 g/ha, scale 0 (no effect) to 100 (complete control)
[18] = Rate 500 g/ha, scale 0 to 100, 0 is no effect, 100 is complete control

CC(C)c1ccn(C2OCN(c3cccc(C(F)(F)F)c3)C2=O)n1 (stereo not shown) [Compound 27]
Flatsedge plant response rating ([1]; Rate 250 g/ha): 100
Flatsedge plant response rating ([1]; Rate 500 g/ha): 100
Plant response rating, Flatsedge ([1]; Rate 62 g/ha): 90
Plant response rating, Flatsedge ([1]; Rate 125 g/ha): 90
Rice plant response rating (rice (Oryza saliva) [2]; Rate 250 g/ha): 40
Rice plant response rating (rice (Oryza saliva) [2]; Rate 500 g/ha): 70
Plant response rating, Rice (rice (Oryza saliva) [2]; Rate 62 g/ha): 0
Plant response rating, Rice (rice (Oryza saliva) [2]; Rate 125 g/ha): 40
Barnyardgrass plant response rating ([3]; Rate 250 g/ha): 60
Barnyardgrass plant response rating ([3]; Rate 500 g/ha): 70
Plant response rating, Barnyardgrass ([3]; Rate 62 g/ha): 20
Plant response rating, Barnyardgrass ([3]; Rate 125 g/ha): 60
Ducksalad plant response rating ([4]; Rate 250 g/ha): 0
Ducksalad plant response rating ([4]; Rate 500 g/ha): 90
Plant response rating, Ducksalad ([4]; Rate 62 g/ha): 0
Plant response rating, Ducksalad ([4]; Rate 125 g/ha): 0
Plant response rating, Flatsedge [5]: 100
Plant response rating, Rice (rice (Oryza saliva) [6]): 50
Plant response rating, Barnyardgrass [7]: 90
Plant response rating, Ducksalad [8]: 100
Plant response rating, Sunflower (Sunflower): 0
Plant response rating, Lambsquarters [9, 17]: 50
Plant response rating, Lambsquarters [9, 18]: 90
Plant response rating, Blackgrass [10, 17]: 0
Plant response rating, Blackgrass [10, 18]: 0
Plant response rating (visual injury vs untreated controls) ([11]; Rate 500 g/ha): 100
Plant response rating (visual injury vs untreated controls) ([11]; Rate 2000 g/ha): 100
Plant response rating (visual injury vs untreated controls) ([12]; Rate 500 g/ha): 100
Plant response rating (visual injury vs untreated controls) ([12]; Rate 2000 g/ha): 90
Plant response rating (visual injury vs untreated controls) ([13]; Rate 500 g/ha): 100
Plant response rating (visual injury vs untreated controls) ([13]; Rate 2000 g/ha): 100
Plant response rating (visual injury vs untreated controls) ([14]; Rate 500 g/ha): 20
Plant response rating (visual injury vs untreated controls) ([14]; Rate 2000 g/ha): 10
Plant response rating (visual injury vs untreated controls) ([15]; Rate 500 g/ha): 0
Plant response rating (visual injury vs untreated controls) ([15]; Rate 2000 g/ha): 20
Plant response rating (visual injury vs untreated controls) ([16]; Rate 500 g/ha): 100
Plant response rating (visual injury vs untreated controls) ([16]; Rate 2000 g/ha): 100

Source: patent US7138361B2, “Herbicidal heterocycles” (E. I. du Pont de Nemours and Company, priority 2000, dated 2006)
